Like-named read-outs stand apart in the source and are kept apart here.
Experiments:
Gli2 [1] = biological target: T1, Gli2 (Homo sapiens, UniProt P10070); test: Overexpression of Gli2 in Gli1 null cells, firefly luciferase reporter; format: cell-based, mouse; parameters: expressed in transfected cells; host or cells: Gli1-/- immortalized mouse embryonic fibroblasts
Description: Gli1 null cells [see Lipinski et al. BMC Cell Biol. 2008; 9:49], an immortalized mouse embryonic fibroblast cell line lacking the Gli1 gene, were cultured in DMEM (Invitrogen, 11965) containing 10% (v/v) calf serum (ATCC, 30-2030), 1 mM sodium pyruvate (Invitrogen, 11360), 1× PenStrep (Gibco, 15140) and 1×MEM non-essential amino acids solution (11140, Invitrogen).
(§1) All test compounds were dissolved in DMSO at 50 mM, serially diluted by 1:3, 1:4 or 1:5 in a 96-well translucent microplate (Greiner bio-one, 650201) and stored at −20° C. These serial dilutions were added to assay media freshly with final DMSO concentration of 0.2% (v/v).
Overexpression of Gli2 in Gli1 null cells provides a measure of Gli2-induced pathway activity. pcDNA-derived Gli2 expression vectors (200 ng/well) and a 1:19 mixture (total 200 ng/well) of constitutive Renilla luciferase reporter (pRLTK, Promega) and firefly luciferase reporter (8XGliBS-FL) were mixed with FuGene HD transfection reagent (1.2 μL/well, Promega, E2311) in Opti-MEM Reduced-Serum Medium with GLutaMAX (Invitrogene, 51985) at a total volume of 25 μL/well. […] The cells were lysed with passive lysis buffer (200 μL/well), and 10 μL of the obtained lysate were analyzed for firefly and Renilla luciferase activities using Dual-Luciferase Reporter Assay System (Promega, E1960) (50 μL/well of each reagent) on a microplate luminometer (Veritas). […]

Sufu-KO-LIGHT cells = test: Sufu-KO-LIGHT cell assay, cytotoxicity (CellTiter 96 AQueous One); format: cell-based, mouse
Description: (§2) Sufu-KO-LIGHT cells were derived from Sufu knockout mouse embryonic fibroblasts according to the method of Chen et al. [Genes Dev. 2009; 23(16):1910-28.] The cells were co-transfected with the zeocin resistance vector (pVgRXR, Invitrogen) and a firefly luciferase reporter driven by eight Gli binding sites and a γ-crystallin basal promoter (8XGliBS-FL) [see Sasaki et al. Development. 1997; 124(7):1313-22.2]. […] Sufu-KO-LIGHT cells were cultured in DMEM (Invitrogen, 11965) containing 10% (v/v) fetal bovine serum (Invitrogen, No. 26140), 150 μg/mL zeocin (Invitrogen, R250-01), 1 mM sodium pyruvate (Invitrogen, 11360) and 1× PenStrep (Gibco, 15140).
as §1
The Sufu-KO-LIGHT cell assay provides a measure of Hh pathway activity and cytotoxicity. […] Bright Glo (Promega, E2620) reagent (50 μL/well) was added to the cells, and luciferase activities were determined on a microplate luminometer (Veritas). […] Cell viability was determined by measuring absorption at 490 nm after 1 hr of incubation on a microplate spectrophotometer (Benchmark Plus, Bio-Rad). Biological triplicates were analyzed for each test compounds.

Hh pathway activity = test: Sufu-KO-LIGHT cell assay, Gli-dependent firefly luciferase reporter; format: cell-based, mouse; conditions: for IC50: Mus musculus
Description: as §2, §1
The Sufu-KO-LIGHT cell assay provides a measure of Hh pathway activity and cytotoxicity. Sufu-KO-LIGHT cells were seeded into a 96-well plate (35,000 cells/well), cultured to confluency for 24 hrs and then incubated with test compounds in DMEM without phenol red (Invitrogen, 26140) containing 0.5% (v/v) fetal bovine serum (Invitrogen, No. 26140), 150 μg/mL zeocin (Invitrogen, R250-01), 1 mM sodium pyruvate (Invitrogen, 11360), 1× PenStrep (Gibco, 15140) for 16 hrs. Bright Glo (Promega, E2620) reagent (50 μL/well) was added to the cells, and luciferase activities were determined on a microplate luminometer (Veritas). To assess cytotoxicity, after 15 hrs of incubation with test compounds, CellTiter 96 AQueous One Solution Cell Proliferation Assay (Promega, G3580) reagent (20 μL/well) was added. Cell viability was determined by measuring absorption at 490 nm after 1 hr of incubation on a microplate spectrophotometer (Benchmark Plus, Bio-Rad). Biological triplicates were analyzed for each test compounds.

Smo = biological target: T2, Smo (Mus musculus, UniProt P56726); test: Smo trafficking assay in NIH 3T3 cells; format: cell-based; conditions: Hh-responsive cells, ShhN stimulation
T2 construct: endogenous in cells; host or cells: NIH 3T3
T2 sequence (P56726 33-793): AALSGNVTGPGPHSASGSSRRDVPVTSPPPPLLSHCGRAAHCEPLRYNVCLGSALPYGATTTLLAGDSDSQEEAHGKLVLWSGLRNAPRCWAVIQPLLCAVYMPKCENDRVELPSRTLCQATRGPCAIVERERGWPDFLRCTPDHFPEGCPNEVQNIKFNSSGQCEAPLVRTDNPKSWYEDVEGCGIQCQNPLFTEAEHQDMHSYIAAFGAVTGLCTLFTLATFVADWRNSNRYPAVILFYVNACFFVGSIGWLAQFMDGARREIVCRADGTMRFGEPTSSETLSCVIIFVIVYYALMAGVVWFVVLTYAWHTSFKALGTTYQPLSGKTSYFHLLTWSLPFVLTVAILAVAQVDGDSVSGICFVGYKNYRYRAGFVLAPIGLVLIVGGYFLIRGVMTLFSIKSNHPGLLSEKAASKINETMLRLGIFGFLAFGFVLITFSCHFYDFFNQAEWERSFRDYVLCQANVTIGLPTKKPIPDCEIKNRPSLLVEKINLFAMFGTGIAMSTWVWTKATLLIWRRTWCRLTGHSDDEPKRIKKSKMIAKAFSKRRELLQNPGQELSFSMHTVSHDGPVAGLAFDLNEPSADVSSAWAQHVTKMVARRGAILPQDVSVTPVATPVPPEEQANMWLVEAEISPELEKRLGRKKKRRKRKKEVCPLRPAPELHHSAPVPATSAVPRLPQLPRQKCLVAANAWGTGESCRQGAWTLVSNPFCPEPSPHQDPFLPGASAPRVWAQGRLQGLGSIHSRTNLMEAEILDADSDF
Text: The cells were imaged using a Plan Apochromat 63×/1.4-0.6 oil immersion objective on an upright Leica DM4500B compound microscope.

Gli2 [2] = biological target: T1, Gli2; test: Overexpression of Gli2 in NIH-3T3 cells, firefly luciferase reporter; format: cell-based; parameters: expressed in transfected cells; host or cells: NIH-3T3 (mouse fibroblasts)
Description: NIH-3T3 cells were obtained from ATCC and cultured in DMEM (Invitrogen, 11965) containing 10% (v/v) calf serum (ATCC, 30-2030), 1 mM sodium pyruvate (Invitrogen, 11360) and 1× PenStrep (Gibco, 15140).
as §1
Overexpression of Gli1 or Gli2 in NIH-3T3 cells provides a measure of Gli1- or Gli1/Gli2-induced pathway activity, respectively. NIH 3T3 cells were seeded into a 24-well plate (35,000 cells/well) and cultured for 30 hrs. […] The cells were lysed with passive lysis buffer (200 μL/well), and 10 μL of the obtained lysate were analyzed for firefly and Renilla luciferase activities using Dual-Luciferase Reporter Assay System (Promega, E1960) (50 μL/well of each reagent) on a microplate luminometer (Veritas). Biological triplicates were analyzed for each test compounds.

T1 sequence (P10070 whole entry, species assumed): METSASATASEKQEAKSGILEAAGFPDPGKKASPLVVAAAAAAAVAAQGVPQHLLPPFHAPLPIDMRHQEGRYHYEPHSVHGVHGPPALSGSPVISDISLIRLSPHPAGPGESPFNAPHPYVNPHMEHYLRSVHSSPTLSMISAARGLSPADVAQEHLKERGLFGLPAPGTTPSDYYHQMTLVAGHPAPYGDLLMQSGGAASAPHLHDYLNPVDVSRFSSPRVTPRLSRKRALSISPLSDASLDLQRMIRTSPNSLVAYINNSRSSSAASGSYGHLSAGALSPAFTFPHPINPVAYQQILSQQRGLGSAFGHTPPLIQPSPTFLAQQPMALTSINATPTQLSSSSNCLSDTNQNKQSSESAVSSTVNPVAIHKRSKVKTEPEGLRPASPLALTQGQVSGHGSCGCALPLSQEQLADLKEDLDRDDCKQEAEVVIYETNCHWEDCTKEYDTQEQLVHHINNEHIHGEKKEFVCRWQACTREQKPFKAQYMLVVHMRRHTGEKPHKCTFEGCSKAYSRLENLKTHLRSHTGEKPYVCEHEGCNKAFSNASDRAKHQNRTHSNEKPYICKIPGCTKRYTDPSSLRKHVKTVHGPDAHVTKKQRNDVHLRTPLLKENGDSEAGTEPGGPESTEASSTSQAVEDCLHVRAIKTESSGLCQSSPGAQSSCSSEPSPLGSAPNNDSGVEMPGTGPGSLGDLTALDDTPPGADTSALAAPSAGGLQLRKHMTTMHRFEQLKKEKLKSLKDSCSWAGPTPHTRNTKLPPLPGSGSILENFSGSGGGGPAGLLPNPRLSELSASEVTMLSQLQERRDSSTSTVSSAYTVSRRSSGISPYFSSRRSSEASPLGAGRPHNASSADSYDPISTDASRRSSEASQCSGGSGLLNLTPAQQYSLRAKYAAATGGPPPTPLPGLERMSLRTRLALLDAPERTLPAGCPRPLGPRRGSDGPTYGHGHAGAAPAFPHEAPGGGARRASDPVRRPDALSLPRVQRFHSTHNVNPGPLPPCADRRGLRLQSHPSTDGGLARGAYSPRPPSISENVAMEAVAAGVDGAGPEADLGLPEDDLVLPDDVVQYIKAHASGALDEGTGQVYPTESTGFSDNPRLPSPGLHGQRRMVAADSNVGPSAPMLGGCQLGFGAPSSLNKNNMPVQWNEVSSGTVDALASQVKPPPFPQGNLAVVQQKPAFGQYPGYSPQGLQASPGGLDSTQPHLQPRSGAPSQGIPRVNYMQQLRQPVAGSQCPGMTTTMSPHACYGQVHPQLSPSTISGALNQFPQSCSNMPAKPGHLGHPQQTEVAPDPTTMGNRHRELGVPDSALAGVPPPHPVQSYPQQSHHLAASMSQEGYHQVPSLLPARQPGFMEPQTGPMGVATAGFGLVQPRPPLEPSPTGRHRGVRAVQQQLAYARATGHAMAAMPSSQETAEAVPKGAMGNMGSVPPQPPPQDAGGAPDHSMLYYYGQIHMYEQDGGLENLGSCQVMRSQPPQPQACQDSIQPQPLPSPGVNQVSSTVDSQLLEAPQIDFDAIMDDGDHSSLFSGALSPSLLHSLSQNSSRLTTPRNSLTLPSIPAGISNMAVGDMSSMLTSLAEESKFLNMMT

In the case of `CCOc1ccc(-[n+]2cc(-c3ccc(Br)cc3)n3c2CCCCC3)cc1` [Compound A-1], the “Gli2-induced Hh reporter expression in cells lacking Gli1” value (Gli2 [1]) is reported as “not able to inhibit”, the “IC50, firefly luciferase” value (Gli2 [1]; Gli2-overexpressing Gli1-/-) is reported as “No inhibition” and the “General cytotoxicity” value (Sufu-KO-LIGHT cells) is reported as “not generally cytotoxic”. For the same molecule, the “IC50, cytotoxicity” value (Sufu-KO-LIGHT cells; Sufu-KO-LIGHT cells) was “No toxicity”, the IC50 (Hh pathway activity) was 1420 ± 960 nM and the IC50 (Hh pathway activity; read-out: IC50, firefly luciferase) was 1420 ± 960 nM. For the same molecule, the “Inhibition of Hh pathway activity” value (Hh pathway activity; Sufu-KO-LIGHT cells) was “inhibits Hh pathway activity”, the “Effect on Smo localization / trafficking” value (Smo) was “did not affect Smo localization” and the “Hh reporter expression induced by exogenous Gli2” value (Gli2 [2]) was “only partially inhibited”.

— patent US9611276B2, “Imidazo bicyclic iminium compounds as antitumor agents” (THE BOARD OF TRUSTEES OF THE LELAND STANFORD JUNIOR …, priority 2012, dated 2017)
